# Assays:
# endometriotic lesions = assay: Effect of hydroxychloroquine on lesion formation in mouse endometriosis model (Example 3); assay type: in vivo, C57BL/6 mice; conditions: 60 mg/kg intraperitoneal, lesions evaluated 14 days after start; P between groups 0.0019
# Experimental: To determine the effect of hydroxychloroquine on endometriosis in vivo, mice (6-8 week old C57BL/6 background mice) were fed on a mouse diet and given ad libitum access to water and kept on a light/dark cycle of 12/12 h under controlled conditions. Prior to any invasive procedure, the mice were anesthetized using Isofluorane (initial vaporizer flow rate of 3-5%) implemented once prior to an invasive procedure. The mice were also given Ketoprofen (10 mg/kg) subcutaneously as a post-operative analgesic agent for the first 24 hours and then as needed. All surgical procedures were performed under sterile conditions. Mice were ordered at 3-5 weeks of age to receive them and allow them to acclimate to the housing conditions prior to the start of the investigation when the mice are about 6 to about 8 weeks of age. […] The fragments were suspended in about 0.6 ml of phosphate buffered saline and were injected with an 18-gauge needle through the abdominal wall below the umbilicus into the peritoneal cavity of recipient mice with a ratio of one donor to two recipients (equivalent quantities). […] Lesions were identified, removed, and analyzed. […]
# [1] = tested on: life-extended human endometriotic cells; assay: CellTiter-glo survival assay, life-extended human endometriotic cells, HCQ; assay type: cell-based; conditions: 25 μM HCQ, 5 days, cells from two different types of lesions, p<0.0001
# Experimental: Primary human endometriotic cells culture conditions and life extension have been previously described. These cells were derived from two different types of lesions (two independent patients) which were assessed separately as described below. Briefly, cells were maintained in MCDB 131:Medium 199 (1:1 ratio) supplemented with 8% FBS, penicillin/streptomycin, and insulin/transferrin/selenium (ITS). Cells were life-extended using SV40 Large T antigen. Retroviral particles generated in HEK293T were used to infect the primary cells. Media containing puromycin (2.5 μg/ml) was used to select primary cells resistant colonies. In addition, we obtained the T-HESC cell line, which are human endometrial stromal cells derived from a uterine myoma (ATCC, Manassas, Va.). This cell line was maintained in phenol red-free DMEM/F12 (1:1) containing 8% charcoal-dextran treated FBS, 500 ng/mL puromycin, 1% ITS+ Premix (BD Bioscience, San Jose, Calif.), and 15 mM HEPES. The cell lines used in the present study were tested to be mycoplasma negative and STR (short tandem repeat) profiled (Genetica DNA Laboratories, Cincinnati, Ohio). Endometriotic cells were seeded at 50,000 cells/well in a 24-well plate, whereas T-HESC cells were seeded at 250,000 cells/well in a 6-well plate. […] Cell viability was then assessed using CellTiter-glo reagent (Promega, Madison, Wis.).
# LC3B-II = assay: Western blot of LC3B in other organs of treated mice; assay type: in vivo, mouse; conditions: 5 HCQ-treated vs 5 PBS-treated mice
# Experimental: Tissues used for protein analyses included uterine horns, ectopic lesions, ovaries, thymus, kidneys, heart, pancreas, spleen, and liver. Samples were flash frozen in liquid nitrogen and stored at -80° C. until use. Tissues were homogenized in ice-cold lysis buffer containing 1% Triton X-100, 50 mM HEPES, 150 mM NaCl, 1 mM MgCl2, 1 mM EGTA, 10% glycerol, and protease inhibitor cocktail (Roche, Indianapolis, Ind.) using a PowerGen 125 homogenizer (Fisher Scientific, Pittsburgh, Pa.). Samples were centrifuged at 14,000 rpm for 10 min at 4° C. The supernatants were collected and total protein concentration was determined using the BCA assay (ThermoScientific, Rockford, Ill.), and a Bio Tek synergy 2 microplate reader (Winooski, Vt.). Samples were normalized and then run onto 10 or 12% SDS-polyacrylamide gels prepared in a Criterion® Cassette system (Bio-Rad, Hercules, Calif.) as previously described. The following antibodies and dilutions were used: LC3B rabbit polyclonal (#2775, 1:1,000), LC3A rabbit monoclonal (#4599 ([…]), 1:1,000), Beclin-1 rabbit polyclonal (#3738, 1:1,000), GABARAPL1 rabbit monoclonal (#13733 (E1J4E), 1:1,000), AMPKα rabbit monoclonal (#2603 (23A3), 1:500), FOXO1 rabbit monoclonal (#2880 (C29H4), 1:1,000), and Pan-Actin rabbit polyclonal (#4968, 1:500) were all obtained from Cell Signaling Technology (Danvers, Mass.). […]
structure (smiles),measurement,setting,value
"CCN(CCO)CCCC(C)Nc1ccnc2cc(Cl)ccc12 (stereo not shown) [HCQ, hydroxychloroquine]",effect on endometriotic lesions (FIG. 5),endometriotic lesions,effectiveness
same,cell survival of human endometriotic cells,[1],marked reduction
same,LC3B-II expression in heart,LC3B-II,showed differences
same,LC3B-II expression in lung,LC3B-II,showed differences
